No end group written: not given here.
Tests used:
γHV68 M11 = target: T1, γHV68 M11 (Murid herpesvirus 4, UniProt P89884); assay: biochemical; type: binding, murine γHV68; conditions: for ΔG, M11 / ΔH, M11 / ΔS, M11: ITC, 25° C., Table 1
T1 construct: γHV68 M11 residues 1-136 was expressed and purified; made in house
Source text: (§1) Various Bcl-2 homologs lacking the C-terminal transmembrane helix were cloned and expressed to enable purification of soluble constructs identical to those used for previous structural studies. γHV68 M11 residues 1-136 was expressed and purified. The double mutant variant of Bcl-XL (N52D, N66D) was created by two rounds of site-directed mutagenesis using the QuikChange II Site-Directed Mutagenesis Kit (Agilent Technologies), then cloned, along with a C-terminal His6-tag for purification, into the NdeI and NotI restriction sites of pET 29b. The His6-tagged Bcl-XL (residues 1-208, N52D, N66D) were expressed in E. coli strain BL21(DE3)pLysS, and soluble protein in the cell lysate was purified to homogeneity by Immobilized Metal Affinity Chromatography using two 5 mL His-Select columns (GE Healthcare) linked in tandem, followed by Ion-Exchange Chromatography using a Mono Q HR 10/10 column (GE Healthcare) and Size-Exclusion Chromatography using a 16/60 preparative Superdex 75 column (GE Healthcare).
(§2) Various Beclin 1 BH3D-derived peptides, were chemically synthesized, and HPLC purified to >95% purity, with peptide purity confirmed by electrospray mass spectrometry (EZBioLabs/RSSynthesis/Protein Chemistry Technology Core at the University of Texas Southwestern Medical Center, Dallas).
(§3) Isothermal titration calorimetry was performed using a Nano ITC Low Volume (TA Instruments). For all ITC experiments, samples were loaded into separate dialysis cassettes, and dialyzed into ITC buffer. The ITC buffer for all experiments involving γHV68 M11 was 50 mM HEPES, pH 7.5, 250 mM NaCl and 2 mM β-mercaptoethanol and for human Bcl-XL was 25 mM HEPES, pH 7.5, 100 mM NaCl and 2 mM β-mercaptoethanol. ITC was performed at 25° C. with 25 injections of 2 μL each. Data were analyzed using NanoAnalyze Software (TA Instruments), with an independent model.

human Bcl-XL = target: T2, human Bcl-XL (Homo sapiens, UniProt Q07817, N52D/N66D); assay: Isothermal titration calorimetry, binding of Beclin 1 BH3D-derived peptides to Bcl-XL; conditions: ITC
T2 construct: The His6-tagged Bcl-XL (residues 1-208, N52D, N66D) were expressed in E. coli; His6 (C); made in house; host or cells: E. coli BL21(DE3)pLysS
Source text: as §1, §2, §3

M11 = target: T3, M11 (Murid herpesvirus 4, UniProt P89884); assay: Autophagy assay (GFP-LC3 puncta), M11-mediated down-regulation of autophagy in MCF7 cells; type: cell-based, murine γHV68; conditions: cells that transiently express M11 in addition to Beclin 1; p=0.0010 treated versus untreated
T3 construct: expressed in transfected cells; host or cells: MCF7 human breast carcinoma cells
T3 sequence (P89884 whole entry, looked up): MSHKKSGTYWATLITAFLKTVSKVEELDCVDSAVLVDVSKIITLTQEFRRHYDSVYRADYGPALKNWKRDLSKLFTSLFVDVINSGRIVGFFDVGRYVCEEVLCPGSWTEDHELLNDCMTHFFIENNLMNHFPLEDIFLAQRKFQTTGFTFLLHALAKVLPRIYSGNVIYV
Method: (§4) Quantification of the fluorescent autophagosomes in MCF7 cells co-transfected with GFP-LC3 (1.6 μg), Beclin 1 (1.2 μg), and either Bcl-XL (1.2 μg) or M11(1.2 μg) expression plasmids (4 μg plasmids total) was done using an inverted AxioObserver (Zeiss). Cells were cultured in DMEM with 10% fetal calf serum (growth medium) in 8-well slides (Millipore) and transfected at 80% confluence with Lipofectamine (Invitrogen). After transfection, cells were either starved overnight in Earle's balanced salt solution (EBSS, starvation medium), or grown in nutrient-rich media with the addition of 2×EAA (essential amino acids) and 2×NEAA (nonessential amino acids) (nutrient rich medium) in the absence or presence of 1 mM peptides if indicated. The number of GFP-LC3 puncta per GFP-LC3 positive cell was assessed by counting a minimum of 50 cells via Image ProPlus for duplicate samples per condition in three independent experiments. The significance of alterations in autophagy levels were determined by a two-tailed, heteroscedastic student's t-test, wherein p≦0.05 is considered significant.
(§5) Lastly, whether the DM peptide would specifically prevent M11-mediated down-regulation, but not Bcl-XL-mediated down-regulation of Beclin 1-dependent autophagy in cells was investigated. […]

Bcl-XL = target: T4, Bcl-XL (Homo sapiens, UniProt Q07817); assay: Autophagy assay (GFP-LC3 puncta), Bcl-XL-mediated down-regulation of autophagy in MCF7 cells; type: cell-based; conditions: cells that transiently express Bcl-XL in addition to Beclin 1; p=0.92294 treated versus untreated
T4 construct: expressed in transfected cells; host or cells: MCF7 human breast carcinoma cells
Method: as §4, §5

MCF7 cells = assay: Autophagy assay (GFP-LC3 puncta) in MCF7 cells without Bcl-XL or M11; type: cell-based, human
Method: as §4, §5

T2 sequence (Q07817 1-208 N52D/N66D): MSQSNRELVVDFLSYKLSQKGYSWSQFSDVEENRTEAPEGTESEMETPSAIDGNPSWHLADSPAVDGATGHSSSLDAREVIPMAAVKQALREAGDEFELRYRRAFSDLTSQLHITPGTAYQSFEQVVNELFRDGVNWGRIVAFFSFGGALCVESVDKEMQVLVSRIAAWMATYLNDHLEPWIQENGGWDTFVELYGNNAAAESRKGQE
T4 sequence (Q07817 whole entry): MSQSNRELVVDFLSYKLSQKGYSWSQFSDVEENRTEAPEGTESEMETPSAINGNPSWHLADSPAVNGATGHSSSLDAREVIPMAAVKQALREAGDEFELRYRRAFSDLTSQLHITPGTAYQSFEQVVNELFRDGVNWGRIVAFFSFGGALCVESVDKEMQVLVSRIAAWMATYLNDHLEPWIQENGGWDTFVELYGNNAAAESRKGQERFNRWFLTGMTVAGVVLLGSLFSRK

Substance	Kd (γHV68 M11)	ΔG, M11 (γHV68 M11)	ΔH, M11 (γHV68 M11)	ΔS, M11 (γHV68 M11)	fold better binding to M11 compared to the G120E peptide (γHV68 M11; relative to G120E peptide)	fold weaker binding to M11 compared to WT (γHV68 M11; relative to WT BH3D)	binding to Bcl-XL (in words) (human Bcl-XL)	autophagy levels compared to untreated cells (M11)	effect on autophagy compared to untreated cells (Bcl-XL)	levels of autophagy (MCF7 cells; MCF7 cells, nutrient-rich or starvation conditions, peptide treatment)	autophagy levels relative to untreated cells (MCF7 cells; cells that express Beclin 1, but not Bcl-XL or M11, p=0.03383 treated versus untreated)	TΔSapp for binding to M11, fold lower than for binding to Bcl-XL (γHV68 M11; M11 versus Bcl-XL)	ΔHapp for binding to M11, fold higher than for binding to Bcl-XL (γHV68 M11; M11 versus Bcl-XL)	ΔG, Bcl-XL (human Bcl-XL; 25° C., Table 1)	ΔH, Bcl-XL (human Bcl-XL; 25° C., Table 1)	ΔS, Bcl-XL (human Bcl-XL; 25° C., Table 1)	Kd (human Bcl-XL; 25° C., Table 1, cell "No" wraps to "Binding" in the next grid row (= No Binding))
GSGTMENLSRRLKVTEALFDIMSGQT [G120E + D121A]	6430 ± 150 nM	-7.079 ± 0.014 kcal/mol	-14.9 ± 0.65 kcal/mol	−109.81 ± 9.28 J/K · mol	~5.7 fold	~4.7 fold	does not bind										
TAT-DM peptide: HIV-1 TAT protein transduction domain attached via a diglycine linker to the N-terminus of the DM peptide (YGRKKRRQRRRGGGSGTMENLSRRLKVTEALFDIMSGQT)								markedly increases autophagy levels	insignificant effect	did not increase levels of autophagy	only a slight elevation in autophagy levels						
GSGTMENLSRRLKVTGDLFDIMSGQT [WT, reference compound]	1380 ± 410 nM	-8.009 ± 0.17 kcal/mol	-16.96 ± 1.53 kcal/mol	−125.72 ± 22.53 J/K · mol								~4 fold	~2 fold	-7.787 ± 0.055 kcal/mol	-10.41 ± 0.344 kcal/mol	−36.89 ± 4.53 J/K · mol	1950 ± 190 nM

From patent US20160272691A1, “COMPOSITIONS AND METHODS FOR TREATING CONDITIONS ASSOCIATED WITH y-[sequence]” (NDSU RESEARCH FOUNDATION, priority 2013, published 2016)
